From patent US20220160686A1, “MACROCYCLIC AZOLOPYRIDINE DERIVATIVES AS EED AND PRC2 MODULATORS” (Fulcrum Therapeutics, Inc., priority 2019, published 2022)
Several values for one entry are separate records, joined by “and”; a condition that tells them apart may be missing. Equal entries are not always repeated. Where two headings read alike, the source gives them in different places.

How the values were obtained:
EZH2/PRC2 complex = EZH2/PRC2 complex (Homo sapiens, UniProt O75530); assay: Histone methyltransferase assay (radioisotope-based HotSpot); assay type: biochemical; conditions: EZH2/PRC2 complex 10 nM, core histone substrate 0.05 mg/ml, 3H-SAM 1 μM; read-out: IC50, inhibitory effects on the HMT enzyme
Chain of EZH2/PRC2 complex (O75530 whole entry): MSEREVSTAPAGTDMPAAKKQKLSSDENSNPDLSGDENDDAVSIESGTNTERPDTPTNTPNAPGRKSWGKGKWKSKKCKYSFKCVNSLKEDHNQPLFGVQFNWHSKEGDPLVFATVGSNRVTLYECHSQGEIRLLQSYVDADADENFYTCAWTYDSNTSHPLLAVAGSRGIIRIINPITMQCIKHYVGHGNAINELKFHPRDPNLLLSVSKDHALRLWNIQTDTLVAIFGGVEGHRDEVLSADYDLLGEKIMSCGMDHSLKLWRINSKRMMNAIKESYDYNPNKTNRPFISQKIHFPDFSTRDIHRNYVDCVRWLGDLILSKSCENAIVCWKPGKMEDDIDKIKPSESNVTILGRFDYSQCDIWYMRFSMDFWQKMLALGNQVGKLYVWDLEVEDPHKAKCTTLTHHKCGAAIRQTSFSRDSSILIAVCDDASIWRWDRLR
Chain of EZH2/PRC2 complex (Q15910 whole entry partner): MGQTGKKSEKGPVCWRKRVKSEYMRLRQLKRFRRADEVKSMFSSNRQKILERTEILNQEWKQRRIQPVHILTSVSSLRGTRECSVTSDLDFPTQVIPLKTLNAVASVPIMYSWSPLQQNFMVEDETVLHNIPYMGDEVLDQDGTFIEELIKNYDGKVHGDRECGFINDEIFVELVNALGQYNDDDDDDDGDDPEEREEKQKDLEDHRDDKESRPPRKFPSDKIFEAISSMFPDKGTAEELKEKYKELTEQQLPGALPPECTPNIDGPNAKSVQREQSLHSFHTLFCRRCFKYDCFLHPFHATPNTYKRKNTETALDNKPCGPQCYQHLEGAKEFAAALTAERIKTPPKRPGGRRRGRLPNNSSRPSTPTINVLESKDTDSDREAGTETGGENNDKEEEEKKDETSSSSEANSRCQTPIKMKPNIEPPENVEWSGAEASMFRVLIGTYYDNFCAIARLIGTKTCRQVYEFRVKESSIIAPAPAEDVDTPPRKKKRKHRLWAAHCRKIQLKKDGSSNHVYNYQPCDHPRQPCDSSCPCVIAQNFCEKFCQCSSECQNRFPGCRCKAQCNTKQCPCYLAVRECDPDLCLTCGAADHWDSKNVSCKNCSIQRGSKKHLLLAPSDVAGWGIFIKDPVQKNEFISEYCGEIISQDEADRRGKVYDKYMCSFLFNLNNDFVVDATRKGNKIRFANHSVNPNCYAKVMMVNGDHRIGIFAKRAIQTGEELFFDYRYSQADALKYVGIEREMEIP
Chain of EZH2/PRC2 complex (Q15022 whole entry partner): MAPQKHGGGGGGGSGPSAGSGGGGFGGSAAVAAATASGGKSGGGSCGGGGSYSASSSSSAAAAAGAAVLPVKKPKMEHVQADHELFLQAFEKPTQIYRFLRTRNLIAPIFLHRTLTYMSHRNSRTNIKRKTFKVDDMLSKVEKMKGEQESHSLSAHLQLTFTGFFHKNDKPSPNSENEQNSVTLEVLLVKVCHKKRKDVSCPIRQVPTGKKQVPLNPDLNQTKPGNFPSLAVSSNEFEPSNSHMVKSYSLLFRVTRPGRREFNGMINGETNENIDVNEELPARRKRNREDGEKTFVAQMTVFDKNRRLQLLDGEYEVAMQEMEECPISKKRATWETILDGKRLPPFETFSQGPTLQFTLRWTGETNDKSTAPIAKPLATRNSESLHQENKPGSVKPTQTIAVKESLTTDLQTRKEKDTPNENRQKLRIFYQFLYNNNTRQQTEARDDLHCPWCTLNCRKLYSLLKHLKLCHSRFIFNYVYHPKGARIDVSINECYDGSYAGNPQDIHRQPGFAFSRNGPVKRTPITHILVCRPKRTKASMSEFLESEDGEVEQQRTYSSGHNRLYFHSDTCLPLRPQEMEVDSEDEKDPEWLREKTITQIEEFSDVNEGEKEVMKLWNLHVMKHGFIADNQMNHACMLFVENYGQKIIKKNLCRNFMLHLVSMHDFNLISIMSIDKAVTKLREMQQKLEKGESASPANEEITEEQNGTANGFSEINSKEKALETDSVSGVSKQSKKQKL
Method: Effect of compounds of the present disclosure on EZH2/PRC2 complex methyltransferase functional activity was measured using the radioisotope-based HotSpot assay described by Horiuchi, K. Y., et al. Assay Drug Dev Technol. 11(4):227-36 (2013). Briefly, compounds were prepared in a 10-point 3-fold serial dilution in DMSO from a 10 mM stock in ECHO qualified plate using Assist Plus (Integra Biosciences) liquid handler. […] Nanoliter quantities of each compound's concentration series were transferred into the enzyme/substrate mix using (Echo 550, LabCyte Inc. Sunnyvale, Calif.) acoustic dispenser and pre-incubated for 20 min at room temperature. The methylation reaction was initiated by the addition of 1 μl of 5 μM S-Adenosyl-L-[methyl-^3H]methionine (^3H-SAM) and incubated at 30° C. for 1 h. The final concentration of the EZH2/PRC2 complex, core histone substrate and ^3H-SAM were 10 nM, 0.05 mg/ml, and 1 μM respectively. The % activity of test samples were calculated with reference to positive (no compound) and negative (no EZH2/PRC2) controls on the plate using Excel (Microsoft). The resulting values were exported to Prism (GraphPad software) to generate concentration response curves and IC50 values using the four-parameter logistic equation.

[1] = test system: human P-glycoprotein HEK cells (HEK-P-gp); assay: H3K27me3 immunocytochemistry assay in P-gp expressing HEK293T cells, with or without elacridar; assay type: cell-based; conditions: Homo sapiens, 4 days compound treatment
Procedure, shortened: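 HEK293T stably expressing human ABCB1 (vinblastine-selected), 1000 cells/well, treated with serially diluted compound for 4 days at 37° C, with or without 250 nM elacridar. Fixed cells stained with anti-H3K27me3 plus Alexa 488 secondary and Hoechst; imaged at 10×, nuclei identified by Hoechst.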

[2] = molecular target: T1, biotinylated AVI-tagged EED (76-441) (Homo sapiens, UniProt O75530); assay: EED binding SPR assay; conditions: 1:1 binding model; read-out: KD, equilibrium dissociation constant as measured by surface plasmon resonance (SPR)
T1 construct: GST (N, cleaved yes); made in house; host or cells: E. coli BL21(DE3), co-expressed with pGro7
T1 sequence (O75530 76-441 limits assumed): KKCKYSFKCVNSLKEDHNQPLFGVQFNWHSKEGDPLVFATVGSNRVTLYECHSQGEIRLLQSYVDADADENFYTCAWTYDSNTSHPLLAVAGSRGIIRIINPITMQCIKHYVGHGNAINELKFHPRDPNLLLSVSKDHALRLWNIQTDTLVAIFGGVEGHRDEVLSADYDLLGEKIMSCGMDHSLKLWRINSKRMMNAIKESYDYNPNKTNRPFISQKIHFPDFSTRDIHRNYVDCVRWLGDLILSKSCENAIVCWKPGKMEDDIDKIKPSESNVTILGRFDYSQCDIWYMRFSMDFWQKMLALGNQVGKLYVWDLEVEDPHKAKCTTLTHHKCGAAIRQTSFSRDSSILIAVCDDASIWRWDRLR
Method: Biotinylated AVI-tagged EED was produced using standard molecular biology techniques. A pGEX plasmid with a GST-preScission-cleavage-site-AVI-EED(76-441) sequence was placed into E. coli BL21(DE3) cells and co-expressed with pGro7. The E. coli were grown in shaker flasks in LB with ampicillin at 37° C. at 110 rpm to an OD600=0.7. At this time the temperature was lowered to 15° C. and IPTG was added to 0.3 mM. The cells were allowed to express overnight. Cells were then harvested.
For purification, the E. coli cell pellet was lysed into a buffer of 50 mM Tris pH 8.0, 500 mM NaCl, 5% glycerol and 5 mM DTT. The lysate was loaded onto a GSTrap FF column from GE Healthcare. After washing, the bound protein was eluted with 50 mM Tris pH 8.0, 500 mM NaCl, 5% glycerol, 5 mM DTT and 15 mM GSH. The collected fractions were combined and incubated with PreScission enzyme overnight at 4° C. The cleaved protein was then passed through a GSTrap FF column in a buffer of 50 mM Tris pH 8.0, 500 mM NaCl, 5% glycerol and 5 mM DTT. The cleaved protein was confirmed through mass spectrometry. The AVI-EED(76-441) was then buffer exchanged into 50 mM Bicine pH 8.3, 10 mM ATP, 10 mM magnesium acetate and 50 μM D-Biotin. 3 mg of BirA enzyme was added to the system and incubated at 4° C. for 2 hours to biotinylate the AVI-EED(76-441). The biotinylated-AVI-EED(76-441) was then buffer exchanged into 20 mM Tris pH 8.0 and 400 mM NaCl and passed through a size exclusion column of Superdex 200 16/60 Increase. The purified monomeric biotinylated-AVI-EED(76-441) was confirmed through SDS-PAGE, LC-MS and analytical size exclusion chromatography.
All surface plasmon resonance (SPR) assays were performed using a GE Biacore S200 utilizing GE Biotin CAPture chips. Capturing of CAP reagents was performed with a flow rate of 2 μL/min for 90 seconds. For protein capturing, a solution of 50 μg/mL of biotinylated AVI-tagged EED (76-441) in 10 mM HEPES pH 7.4, 150 mM NaCl, 0.05% Tween 20 and 2% DMSO (Running Buffer) was flowed over the chip with a flow rate of 5 μL/min for a contact time of 30 seconds. Final readings were 2200-2400 RU. For compounds, 7 concentrations were made with 3-dilutions using the Running Buffer for a total of 300 μL of each concentration in a 96-well microplate. During the binding experiments, a flow rate of […] was used for an association time of 90 seconds followed by a disassociation time of 180 seconds. The compartment temperature was set at 10° C. with the chip at 25° C. During regeneration the flow rate was set to 30 μL/min for 30 seconds. All fittings were done using a 1:1 binding model.

[3] = HEK293, 96 h, without elacridar, read-out: IC50, inhibitory activity on human P-glycoprotein HEK cells (HEK-P-gp)
[4] = HEK293, with 250 nM elacridar, read-out: IC50, inhibitory activity on human P-glycoprotein HEK cells (HEK-P-gp) pretreated with elacridar

| SMILES | IC50 (EZH2/PRC2 complex) | IC50 [1, 3] | IC50 [1, 4] | Kd [2] |
| --- | --- | --- | --- | --- |
| Cc1ncccc1-c1cc2c(n3cnnc13)NCc1c(F)ccc3c1[C@H](CO3)CO2 [Compound 185, (R)-12-fluoro-4-(2-methylpyridin-3-yl)-7a,8,13,14-tetrahydro-7H-[1,2,4]triazolo[4′,3′:1,6]pyrido[3,2-b]benzofuro[4,3-fg][1,4]oxazonine] | > 0.5 µM | > 0.5 µM | > 0.5 µM |  |
| Cn1nc(O)cc1-c1cc2c(n3cnnc13)NCc1c(F)ccc3c1C(CO3)CO2 [Compound 197, (S)-5-(12-fluoro-7a,8,13,14-tetrahydro-7H-[1,2,4]triazolo[4′,3′:1,6]pyrido[3,2-b]benzofuro[4,3-fg][1,4]oxazonin-4-yl)-1-methyl-1H-pyrazol-3-ol] |  | < 0.025 µM | 0.05 to 0.1 µM | 0.01 to 0.05 µM and < 0.0025 µM |
| CC(=O)N1CCC(c2cc3c(n4cnnc24)NCc2c(F)cccc2COC3)CC1 [Compound 198, 1-(4-(12-fluoro-6,8,13,14-tetrahydro-[1,2,4]triazolo[4′,3′:1,6]pyrido[3,2-c]benzo[g][1,5]oxazonin-4-yl)piperidin-1-yl)ethan-1-one] | > 0.5 µM |  |  |  |
| COc1nc(C)ccc1-c1cc2c(n3cnnc13)NCc1c(F)ccc3c1[C@H](CO3)CO2 [Example 105] |  | 0.1 to 0.5 µM | 0.1 to 0.5 µM | 0.005 to 0.01 µM |
| COc1ccc(-c2cc3c(n4cnnc24)NCc2c(F)ccc4c2[C@H](CO4)CO3)c(C)n1 [Example 106] |  | 0.05 to 0.1 µM | 0.025 to 0.05 µM | < 0.0025 µM |
| CN(C)c1ncc(-c2cc3c(n4cnnc24)NCc2c(F)ccc4c2[C@H](CO4)CO3)cn1 [Example 108] |  | > 0.5 µM | > 0.5 µM | < 0.0025 µM |
| CCOc1ncc(-c2cc3c(n4cnnc24)NCc2c(F)ccc4c2[C@H](CO4)CO3)cn1 [Example 109] |  | 0.1 to 0.5 µM | 0.1 to 0.5 µM | < 0.0025 µM |
| COc1ncc(F)cc1-c1cc2c(n3cnnc13)NCc1c(F)ccc3c1[C@H](CO3)CO2 [Example 111] |  | 0.1 to 0.5 µM | 0.1 to 0.5 µM | 0.0025 to 0.005 µM |
| Fc1ccc2c3c1CNc1c(cc(-c4ccc(C(F)(F)F)nc4)c4nncn14)OC[C@H]3CO2 [Example 112] |  | 0.1 to 0.5 µM | 0.1 to 0.5 µM | 0.0025 to 0.005 µM |
| Fc1ccc2c3c1CNc1c(cc(-c4ccc(C(F)(F)F)cn4)c4nncn14)OCC3CO2 (stereo not shown) [Example 113] |  | > 0.5 µM | > 0.5 µM | 0.01 to 0.05 µM |
| Fc1ccc2c3c1CNc1c(cc(-c4cnc(C(F)(F)F)nc4)c4nncn14)OC[C@H]3CO2 [Example 114] |  | 0.1 to 0.5 µM | 0.1 to 0.5 µM | < 0.0025 µM |
| Fc1ccc2c3c1CNc1c(cc(-c4ccc(N5CCOCC5)nc4)c4nncn14)OC[C@H]3CO2 [Example 116] |  | > 0.5 µM | 0.1 to 0.5 µM | < 0.0025 µM |
| CN1CCN(c2ccc(-c3cc4c(n5cnnc35)NCc3c(F)ccc5c3[C@H](CO5)CO4)cn2)CC1 [Example 117] |  | 0.1 to 0.5 µM | 0.05 to 0.1 µM | < 0.0025 µM |
| CN1CCN(c2ncc(-c3cc4c(n5cnnc35)NCc3c(F)ccc5c3[C@H](CO5)CO4)cn2)CC1 [Example 118] |  | 0.1 to 0.5 µM | 0.05 to 0.1 µM | < 0.0025 µM |
| Cc1cc(-c2cc3c(n4cnnc24)NCc2c(F)ccc4c2[C@H](CO4)CO3)cnn1 [Example 123] |  | > 0.5 µM | > 0.5 µM | < 0.0025 µM |
